Measurements from patent EP0901466B1, “BIPHENYLSULFONAMIDE MATRIX METALLOPROTEINASE INHIBITORS” (WARNER-LAMBERT COMPANY, priority 1996, dated 1997).
Like-named read-outs stand apart in the source and are kept apart here.

Experiments:
Type in all cases: biochemical
full-length gelatinase B = target: T1, full-length gelatinase B (Homo sapiens, UniProt P14780); assay: full-length gelatinase B hydrolysis of thiopeptolide (FLGB); conditions: thiopeptolide substrate
T1 construct: full-length gelatinase B (FLGB) hydrolysis of thiopeptolide
T1 sequence (P14780 94-707, species assumed): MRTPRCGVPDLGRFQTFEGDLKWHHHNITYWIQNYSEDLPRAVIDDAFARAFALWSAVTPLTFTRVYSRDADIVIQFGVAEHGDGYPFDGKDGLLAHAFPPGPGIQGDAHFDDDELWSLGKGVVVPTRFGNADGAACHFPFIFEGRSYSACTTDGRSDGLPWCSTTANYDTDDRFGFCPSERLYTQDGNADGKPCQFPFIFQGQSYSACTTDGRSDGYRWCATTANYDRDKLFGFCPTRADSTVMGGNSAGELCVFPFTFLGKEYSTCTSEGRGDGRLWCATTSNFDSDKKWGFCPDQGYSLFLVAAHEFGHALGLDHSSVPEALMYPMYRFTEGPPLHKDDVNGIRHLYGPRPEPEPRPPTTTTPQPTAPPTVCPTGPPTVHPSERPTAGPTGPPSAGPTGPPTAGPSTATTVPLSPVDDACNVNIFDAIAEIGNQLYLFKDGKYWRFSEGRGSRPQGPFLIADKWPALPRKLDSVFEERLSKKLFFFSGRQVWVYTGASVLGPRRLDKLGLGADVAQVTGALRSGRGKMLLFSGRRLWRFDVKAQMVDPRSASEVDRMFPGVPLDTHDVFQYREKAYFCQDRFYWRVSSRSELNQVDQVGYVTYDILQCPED
Description: (§1) The compounds were additionally evaluated for their ability to inhibit full-length collagenase hydrolysis of thiopeptolide substrate (FLC) and full-length gelatinase B (FLGB) hydrolysis of thiopeptolide.

[1] = target: stromelysin catalytic domain (Homo sapiens, UniProt P08254); assay: stromelysin catalytic domain hydrolysis of thiopeptolide (SCD (T))
Chain of stromelysin catalytic domain (P08254 100-272 limits assumed): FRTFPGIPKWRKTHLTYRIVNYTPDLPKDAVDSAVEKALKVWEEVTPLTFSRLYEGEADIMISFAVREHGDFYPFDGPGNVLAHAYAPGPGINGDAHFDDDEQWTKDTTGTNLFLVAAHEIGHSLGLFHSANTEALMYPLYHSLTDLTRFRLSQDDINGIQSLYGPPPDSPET

full-length collagenase = target: T2, full-length collagenase (Homo sapiens, UniProt P03956); assay: full-length collagenase hydrolysis of thiopeptolide substrate (FLC)
T2 sequence (P03956 100-469): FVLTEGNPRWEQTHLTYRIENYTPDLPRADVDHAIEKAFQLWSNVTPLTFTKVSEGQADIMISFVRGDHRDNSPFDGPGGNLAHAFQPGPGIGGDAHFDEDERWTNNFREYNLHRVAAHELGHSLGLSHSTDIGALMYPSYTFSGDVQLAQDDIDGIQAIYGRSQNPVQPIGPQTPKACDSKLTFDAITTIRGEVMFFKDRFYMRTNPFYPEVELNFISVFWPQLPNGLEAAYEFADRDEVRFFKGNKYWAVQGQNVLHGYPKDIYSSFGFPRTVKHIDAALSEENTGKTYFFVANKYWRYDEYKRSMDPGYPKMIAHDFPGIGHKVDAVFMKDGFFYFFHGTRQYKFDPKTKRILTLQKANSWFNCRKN
Description: as §1

[2] = thiopeptolide substrate, read-out: SCD (T) (IC50)

Row | Compound | IC50 [1, 2] | also measured
1 | CC(C)[C@H](NS(=O)(=O)c1ccc(-c2ccc(Br)cc2)cc1)C(=O)O [Example 1, (S)-2-(4'-Bromo-biphenyl-4-sulfonylamino)-3-methyl-butyric acid] | – | IC50 (full-length gelatinase B): 8.34 µM
2 | CC(C)[C@H](NS(=O)(=O)c1ccc(-c2ccc(Cl)cc2)cc1)C(=O)O [Example 2, (S)-2-(4'-Chloro-biphenyl-4-sulfonylamino)-3-methyl-butyric acid] | – | IC50 (full-length gelatinase B): 23 µM; IC50 [1]: 100 nM; IC50 (full-length collagenase): 7.5 µM
3 | CC(C)[C@H](NS(=O)(=O)c1ccc(-c2ccc([N+](=O)[O-])cc2)cc1)C(=O)O [Example 3, (S)-3-Methyl-2-(4'-nitro-biphenyl-4-sulfonylamino)-butyric acid] | 31 nM | –
4 | CC(C)[C@H](NS(=O)(=O)c1ccc(-c2ccc(N)cc2)cc1)C(=O)O [Example 4, (S)-2-(4'-Amino-biphenyl-4-sulfonylamino)-3-methyl-butyric acid] | 67 nM | –
5 | CC(C)[C@H](NS(=O)(=O)c1ccc(-c2ccc(C#N)cc2)cc1)C(=O)O [Example 5, (S)-2-(4'-Cyano-biphenyl-4-sulfonylamino)-3-methyl-butyric acid] | – | IC50 [1]: 9 nM
6 | CC(C)[C@H](NS(=O)(=O)c1ccc(-c2cccc(Br)c2)cc1)C(=O)O [Example 7, (S)-2-(3'-Bromo-biphenyl-4-sulfonylamino)-3-methyl-butyric acid] | 347 nM | –
7 | CC(C)[C@H](NS(=O)(=O)c1ccc(-c2ccc(Br)cc2F)cc1)C(=O)O [Example 8, (S)-2-(4'-Bromo-2'-fluoro-biphenyl-4-sulfonylamino)-3-methyl-butyric acid] | 30 nM | –
8 | O=C(O)[C@H](Cc1ccccc1)NS(=O)(=O)c1ccc(-c2ccc(Br)cc2)cc1 [Example 10, (S)-2-(4'-Bromo-biphenyl-4-sulfonylamino)-3-phenyl-propionic acid] | 26 nM | –
9 | O=C(O)CNS(=O)(=O)c1ccc(-c2ccc(Br)cc2)cc1 [Example 12, (4'-Bromo-biphenyl-4-sulfonylamino)-acetic acid] | 60 nM | –
10 | C[C@H](NS(=O)(=O)c1ccc(-c2ccc(Br)cc2)cc1)C(=O)O [Example 13, (S)-2-(4'-Bromo-biphenyl-4-sulfonylamino)-propionic acid] | 28 nM | –
11 | CC(C)C[C@H](NS(=O)(=O)c1ccc(-c2ccc(Br)cc2)cc1)C(=O)O [Example 14, (S)-2-(4'-Bromo-biphenyl-4-sulfonylamino)-4-methyl-pentanoic acid] | 13 nM | –
12 | COc1ccc(-c2ccc(S(=O)(=O)N[C@H](C(=O)O)C(C)C)cc2)cc1 [Example 15, (S)-2-(4'-Methoxy-biphenyl-4-sulfonylamino)-3-methyl-butyric acid] | – | IC50 [1]: 8 nM
13 | CC(C)[C@H](NS(=O)(=O)c1ccc(-c2ccc(F)cc2)cc1)C(=O)O [Example 16, (S)-2-(4'-Fluoro-biphenyl-4-sulfonylamino)-3-methyl-butyric acid] | 14 nM | –
14 | CC(C)[C@H](NS(=O)(=O)c1ccc(-c2cccc(F)c2)cc1)C(=O)O [Example 17, (S)-2-(3'-Fluoro-biphenyl-4-sulfonylamino)-3-methyl-butyric acid] | 27 nM | –
15 | Cc1ccc(-c2ccc(S(=O)(=O)N[C@H](C(=O)O)C(C)C)cc2)cc1 [Example 18, (S)-3-Methyl-2-(4'-methyl-biphenyl-4-sulfonylamino)-butyric acid] | 12 nM | –
